# Assay results from patent US4734416A, “Pharmaceutically useful carbostyril derivatives” (Otsuka Pharmaceutical Co., Ltd., priority 1978, dated 1988).
# Where a name gives a salt, the structure may show the parent alone.
# Columns and labels:
# [1] = Activity for inhibiting fighting behavior of mouse isolated singly for a long period of time; format: in vivo, mouse (male, ddy-strain); conditions: positive if fighting no longer than 5 seconds in a minute, range in parentheses, read-out: ED50 (inhibition of fighting behavior)
# Description: Individual male mice of ddy-strain having 15 to 20 g of body weight are breeded separately in respective cages for 1 month. One test group consists of 10 pairs of mice. The pairs of mice are selected so that when one mouse is taken into the home cage of another, the two mice fight together continuously for over 30 seconds. ED50 values are calculated by administering the respective test compounds to each test groups of mice. Activity for inhibiting fighting behavior of the test compound is determined as positive in case the administered mice only continue the fighting for no longer than 5 seconds in a minute. When the mice continue the fighting over 5 seconds they are forced to separate for the purpose of reducing the number of injured mice. [Reference: C. Y. Yen, R. L. Stanger and N. Millman: Arch. Int. Pharmacodyn., 123, 179 (1959)]
# in vivo = conditions: mouse
# Description: Mice of ddy-strain having 20-22 g of body weight are used. One test group consists of 10 mice.
# Oral administration: Compound to be tested is suspended in 1% Gummi Arabicum physiological NaCl aqueous solution.
# Intravenuous administration: Compound to be tested is dissolved in 50% propyleneglycol aqueous solution.
# [2] = Halothane anesthesia increasing activity (righting reflex); format: in vivo, mouse (male, ddy-strain); conditions: oral; for Time (minutes) between introduction of anesthesia and waking: 8 mg/kg, 1 hour before 4% Halothane
# Description: Male mice of ddy-strain having about 20 g body weight are used. One test group consists of 10 mice. An aqueous Gummi Arabicum suspension of test compound (80 mg of a compound to be tested and 1 g of Gummi Arabicum/100 ml of physiological NaCl solution) is administered orally to each mouse at the dosage of 8 mg of test compound/kg body. One hour after the administration, each mouse is placed in a gas respiration chamber (13×13×24 cm) and oxygen gas containing 4% of Halothane [2-bromo-2-chloro-1,1,1-trifluoroethane] is blown into the chamber at the velocity of 2 l/min for 3 minutes. A mouse anaesthetized is taken out from the chamber and the time between the introduction of anesthesia to waking is measured by righting reflex as the index. To mice of the control group, 1% Gummi Arabicum aqueous physiological solution is orally administered at the dosage of 0.1 ml/10 g body. [Reference: M. J. Turnbull and J. W. Watkins: Br. J. Pharmac., 58, 27-35 (1976)]
# Same procedures as mentioned in (II)-(A) are employed, except that the amount of test compound to be orally administered is changed in 4 steps at the dosage of 0.5 mg/kg, 1 mg/kg, 2 mg/kg and 4 mg/kg respectively to measure the relationship between the dosage and degree of strength of anesthesia increasing activity.
# [3] = biological target: T1, enucleated ileum of a guinea pig (Cavia porcellus, UniProt P31389); experiment: Antihistamine activity test in vitro (enucleated guinea pig ileum, histamine retraction, pA2 by Van Rossam method); conditions: 10^-6 g/ml test compound, 5 minutes before histamine, 36° C.
# T1 construct: the tissue of ileum is cut to a length of 2.5 to 3.0 cm and suspended in an organ bath; from tissue; host or cells: isolated ileum from the ileocecal region of male guinea pig
# Description: As to the test method for determining antihistamine activity of a compound in vitro, a method of using an enucleated ileum of a guinea pig is generally accepted.
# A male guinea pig having 300 to 500 g body weight is killed by blood letting. An ileum having a length of 15 cm being enculeated from the ileocecal region is dipped into Tyrode's solution (which is prepared from […], 0.2 g of KCl, 0.2 g of CaCl2, 1.0 g of glucose, 1.0 g of NaHCO3, 0.065 g of NaHPO4.2H2 O and 0.2135 g of MgCl2.6H2 O to make 1000 ml in total volume by adding water). Then the tissue of ileum is cut to a length of 2.5 to 3.0 cm and suspended in an organ bath filled with 30 ml of Tyrode's solution. The organ bath is kept at a temperature of 36° C. and a mixed gas consisting of 5% of CO2 and 95% of O2 is blown into the bath. 10 Minutes after the blowing, 10^-6 M of histamine is added to the bath to examine the sensitivity of the tissue and a reaction curve (control) with respect to the dosage of histamine is obtained. After the dosage of histamine-reaction curve (control) becomes constant, 10^-6 g/ml of a compound to be tested is added to the bath and further histamine is added 5 minutes later to obtain a dosage-reaction curve. Retraction of the ileum is recorded on a pen-recorder through an isotonic transducer [TD-112S manufactured by Nihon Koden]. Antihistamine activity of the test compound is determined as pA2 value by the "Van Rossam" method [J. M. Van Rossam; Arch. Inst. Pharmacodyn., 143, 299 (1963)] wherein the maximum retraction of ileum caused by histamine shown in the control curve is 100%.
# [4] = Analgetic activity (acetic acid writhing); format: in vivo, mouse (male, ddy-strain); conditions: Mus musculus, read-out: ED50 (analgetic activity)
# Description: Male mice of ddy-strain having 15-23 g of body weight are used. One test group consists of 10 mice. The compound to be tested is administered orally by procedures similar to the method mentioned in (II). Fifty minutes after the administration, 0.1 ml of 0.6% acetic acid aqueous solution/10 g body weight is injected intraperitoneally. In case of the mice administered orally with the reference compound (Haloperidol), the injection is made 110 minutes after the administration. The number of writhings shown after 10 minutes is counted for 10 minutes and the ED50 value of respective compounds is calculated in comparison with the number of writhings shown by control group. [Reference: R. Koster, M. Anderson and E. I. Debeer: Fed. Proc., 18, 412, (1959)]
# [5] = Hexabarbital sleep increasing activity (righting reflex); format: in vivo, mouse (male, ddy-strain); conditions: oral, Hexabarbital Na 70 mg/kg i.p.
# Description: Male mice of ddy-strain having 20 to 25 g body weight are starved for 24 hours. One test group consists of 10 mice. An aqueous Gummi Arabicum suspension of test compound (0.05 g of test compound and 1 g of Gummi Arabicum/100 ml of physiological NaCl solution) is administered orally at the dosage mentioned in the Table 4. One hour after the administration 0.7% of Hexabarbitol.Na-salt is intraperitonerally administered at the dosage of 70 mg/kg body weight. The time between the introduction of sleep to waking is measured by righting reflex as the index. [Reference: A. M. Hjort, De E. J. Beer and D. W. Fassett; J. Pharmac., Exptl.
# T1 sequence (P31389 whole entry): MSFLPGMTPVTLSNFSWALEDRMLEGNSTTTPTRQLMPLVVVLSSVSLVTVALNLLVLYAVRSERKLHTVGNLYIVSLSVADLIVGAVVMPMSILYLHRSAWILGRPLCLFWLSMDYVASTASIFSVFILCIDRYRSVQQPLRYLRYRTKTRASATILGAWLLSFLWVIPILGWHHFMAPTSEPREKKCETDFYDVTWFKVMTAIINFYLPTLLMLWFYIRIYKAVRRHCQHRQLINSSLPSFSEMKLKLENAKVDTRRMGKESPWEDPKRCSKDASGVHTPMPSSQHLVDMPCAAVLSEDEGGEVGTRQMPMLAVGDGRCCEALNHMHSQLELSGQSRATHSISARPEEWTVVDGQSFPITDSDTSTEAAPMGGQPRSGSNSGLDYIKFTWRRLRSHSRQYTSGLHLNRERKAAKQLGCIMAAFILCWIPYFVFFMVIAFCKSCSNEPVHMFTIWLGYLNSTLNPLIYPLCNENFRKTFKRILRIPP
compound,measurement,setting,value
"O=C1CCc2ccc(OCCCN3CCN(c4cccc(Cl)c4)CC3)cc2N1 [Compound 39, 7-{3-[4-(3-Chlorophenyl)piperazinyl]propoxy}-3,4-dihydrocarbostyril]",ED50,[1],0.96 mg/kg
same,LD50,"in vivo; iv, female mice",293 mg/kg
same,LD50,"in vivo; iv, male mice",310 mg/kg
same,LD50,"in vivo; po, female mice",1100 mg/kg
same,LD50,"in vivo; po, male mice",1210 mg/kg
same,Time (minutes) between introduction of anesthesia and waking,[2],5.0 ± 2.9 min
same,Kb,[3],0.182 nM
"O=C1CCc2c(cccc2OCCCN2CCCN(c3ccccc3)CC2)N1 [Compound 31, 5-[3-(4-Phenylhomopiperazinyl)propoxy]-3,4-dihydrocarbostyril]",ED50,"[4]; 50 min, oral, 50 minutes before acetic acid i.p., range in parentheses",1.92 mg/kg
same,LD50,"in vivo; iv, female mice",248 mg/kg
same,LD50,"in vivo; iv, male mice",256 mg/kg
same,LD50,"in vivo; po, female mice",923 mg/kg
same,LD50,"in vivo; po, male mice",870 mg/kg
same,Time (minutes) between introduction of anesthesia and waking,[2],8.2 ± 3.9 min
same,Kb,[3],0.263 nM
"O=C1CCc2c(cccc2OCCCN2CCN(c3ccccc3)CC2)N1 [Compound 5, 5-[3-(4-Phenylpiperazinyl)propoxy]-3,4-dihydrocarbostyril dihydrochloride]",ED50,[1],1.28 mg/kg
same,Anesthesia increasing activity,[2]; 0.5 mg/kg,5.2 ± 2.1 min
same,Anesthesia increasing activity,[2]; 1 mg/kg,8.5 ± 3.5 min
same,Anesthesia increasing activity,[2]; 2 mg/kg,9.6 ± 4.1 min
same,Anesthesia increasing activity,[2]; 4 mg/kg,12.7 ± 3.9 min
same,Time (minutes) between introduction of anesthesia and waking,[2],16.9 ± 7.9 min
same,Kb,[3],1.35 nM
"CN1C(=O)CCc2c(OCCCN3CCN(c4ccccc4)CC3)cccc21 [Compound 9, 1-Methyl-5-[3-(4-phenylpiperazinyl)propoxy]-3,4-dihydrocarbostyril monohydrochloride]",ED50,[1],1.52 mg/kg
same,Time (minutes) between introduction of anesthesia and waking,[2],9.5 ± 3.2 min
same,Kb,[3],0.0263 nM
"CN1C(=O)CCc2c(OCC(O)CN3CCN(c4ccccc4)CC3)cccc21 (centres unmarked) [Compound 7, 1-Methyl-5-[2-hydroxy-3-(4-phenylpiperazinyl)propoxy]-3,4-dihydrocarbostyril monohydrochloride]",LD50,"in vivo; iv, female mice",432 mg/kg
same,LD50,"in vivo; iv, male mice",424 mg/kg
same,LD50,"in vivo; po, female mice",1650 mg/kg
same,LD50,"in vivo; po, male mice",1600 mg/kg
same,Anesthesia increasing activity,[2]; 0.5 mg/kg,5.3 ± 2.5 min
same,Anesthesia increasing activity,[2]; 1 mg/kg,7.4 ± 3.1 min
same,Anesthesia increasing activity,[2]; 2 mg/kg,9.5 ± 3.8 min
same,Anesthesia increasing activity,[2]; 4 mg/kg,13.7 ± 4.7 min
same,Time (minutes) between introduction of anesthesia and waking,[2],8.9 ± 2.4 min
same,Kb,[3],0.132 nM
"COc1ccccc1N1CCN(CCCOc2ccc3c(c2)NC(=O)CC3)CC1 [Compound 17, 7-{3-[4-(2-Methoxyphenyl)piperazinyl]propoxy}-3,4-dihydrocarbostyril]",ED50,[1],0.92 mg/kg
same,Sleep time (min.) [Mean ± SD],[5]; 0.125 mg/kg,39.51 ± 8.45 min
same,Sleep time (min.) [Mean ± SD],[5]; 0.25 mg/kg,45.57 ± 10.05 min
same,Sleep time (min.) [Mean ± SD],[5]; 0.5 mg/kg,51.77 ± 6.60 min
same,Sleep time (min.) [Mean ± SD],[5]; 1.0 mg/kg,56.92 ± 6.13 min
same,LD50,"in vivo; iv, female mice",216 mg/kg
same,LD50,"in vivo; iv, male mice",218 mg/kg
same,LD50,"in vivo; po, female mice",860 mg/kg
same,LD50,"in vivo; po, male mice",898 mg/kg
same,Time (minutes) between introduction of anesthesia and waking,[2],13.6 ± 5.2 min
same,Kb,[3],0.871 nM
"O=C1CCc2ccc(OCCCN3CCN(c4cccc(F)c4)CC3)cc2N1 [Compound 24, 7-{3-[4-(3-Fluorophenyl)piperazinyl]propoxy}-3,4-dihydrocarbostyril]",Time (minutes) between introduction of anesthesia and waking,[2],11.6 ± 6.7 min
same,Kb,[3],0.257 nM
"Cc1ccc(N2CCN(CCCOc3ccc4c(c3)NC(=O)CC4)CC2)cc1 [Compound 15, 7-{3-[4-(4-Methylphenyl)piperazinyl]propoxy}-3,4-dihydrocarbostyril]",Time (minutes) between introduction of anesthesia and waking,[2],12.7 ± 3.5 min
same,Kb,[3],0.331 nM
"O=C(CCCN1CCC(O)(c2ccc(Cl)cc2)CC1)c1ccc(F)cc1 [Haloperidol, reference compound]",ED50,"[4]; po, 110 min",2.31 mg/kg
same,Sleep time (min.) [Mean ± SD],[5]; 4 mg/kg,43.01 ± 19.22 min
same,Sleep time (min.) [Mean ± SD],[5]; 8 mg/kg,46.83 ± 13.94 min
same,Sleep time (min.) [Mean ± SD],[5]; 16 mg/kg,66.81 ± 14.32 min
same,Anesthesia increasing activity,[2]; 0.5 mg/kg,5.3 ± 2.9 min
same,Anesthesia increasing activity,[2]; 1 mg/kg,5.1 ± 2.5 min
same,Anesthesia increasing activity,[2]; 2 mg/kg,9.3 ± 3.1 min
same,Anesthesia increasing activity,[2]; 4 mg/kg,10.2 ± 3.7 min
"O=c1cc(-c2ccccc2)c2ccc(OCCCN3CCN(c4ccccc4)CC3)cc2[nH]1 [Compound 27, 4-Phenyl-7-[3-(4-phenylpiperazinyl)propoxy]carbostyril]",Time (minutes) between introduction of anesthesia and waking,[2],7.8 ± 3.2 min
same,Kb,[3],0.977 nM
"CC(COc1ccc2c(c1)NC(=O)CC2)CN1CCN(c2ccccc2)CC1 (centres unmarked) [Compound 25, 7-[2-Methyl-3-(4-phenylpiperazinyl)propoxy]-3,4-dihydrocarbostyril]",Time (minutes) between introduction of anesthesia and waking,[2],7.8 ± 3.3 min
same,Kb,[3],0.617 nM
"O=C1CCc2c(cccc2OCCCN2CCN(C3CCCCC3)CC2)N1 [Compound 30, 5-[3-(4-Cyclohexylpiperazinyl)propoxy]-3,4-dihydrocarbostyril]",Time (minutes) between introduction of anesthesia and waking,[2],7.9 ± 3.7 min
same,Kb,[3],44.7 nM
"O=C1CCc2ccc(OCCCN3CCN(Cc4ccccc4)CC3)cc2N1 [Compound 14, 7-[3-(4-Benzylpiperazinyl)propoxy]-3,4-dihydrocarbostyril]",Time (minutes) between introduction of anesthesia and waking,[2],7.5 ± 4.3 min
same,Kb,[3],0.794 nM
"CN1C(=O)CN=C(c2ccccc2)c2cc(Cl)ccc21 [Diazepam, reference compound]",ED50,[1],7.29 mg/kg
"CC(C)N1C(=O)CCc2ccc(OCCCN3CCN(c4ccccc4)CC3)cc21 [Compound 23, 1-(2-Propyl)-7-[3-(4-phenylpiperazinyl)propoxy]-3,4-dihydrocarbostyril dihydrochloride]",Time (minutes) between introduction of anesthesia and waking,[2],7.6 ± 4.2 min
same,Kb,[3],0.589 nM
